Assay results: US5643870A, “O-acylated cyclosporins” (Sandoz Ltd., priority 1992, dated 1997)
≈ marks a conversion by molar mass, not a printed value.

What was measured:
[1] = tested on: lymphocytes from the spleen of Balb/c mice incubated with lymphocytes from the spleen of CBA mice
Protocol: 0.5×10^6 lymphocytes from the spleen of female (8-10 weeks) Balb/c mice are incubated for 5 days in 0.2 ml cell growth medium with ca. 0.5×10^6 lymphocytes from the spleen of female (8-10 weeks) CBA mice. Test substance is added to the medium at various concentrations. Activity is assessed by ability to suppress proliferation associated DNA synthesis as determined by incorporation of radiolabelled thymidine.

[2] = tested on: plaque forming, i.e. antibody producing, cells (lymphocytes from the spleen of OFI mice co-cultured with sheep erythrocytes); assay type: cell-based; settings: 3 days co-culture with sheep erythrocytes
Protocol: Ca. 10^7 lymphocytes from the spleen of OFI, female mice are co-cultured with ca. 3×10^7 sheep erythrocytes for 3 days. Test substance is added to the incubation medium in varying concentrations. Lymphocytes are harvested and plated onto agar with fresh sheep erythrocytes as antigen. Sensitised lymphocytes secrete antibody that coats the erythrocytes, which lyse to form a plaque in the presence of complement. Activity is assessed by reduction in the number of plaque forming, i.e. antibody producing, cells. Cyclosporins in accordance with the present invention reduce the numbers of plaque forming cells at concentrations of the order of from 0.03 to 0.05 μg/ml.

CC[C@@H]1NC(=O)[C@H]([C@H](O)[C@H](C)C/C=C/COC(=O)OC)N(C)C(=O)[C@H](C(C)C)N(C)C(=O)[C@H](CC(C)C)N(C)C(=O)[C@H](CC(C)C)N(C)C(=O)[C@@H](C)NC(=O)[C@H](C)NC(=O)[C@H](CC(C)C)N(C)C(=O)[C@H](C(C)C)NC(=O)[C@H](CC(C)C)N(C)C(=O)CN(C)C1=O [Example 1, [(8'-Methoxycarbonyloxy)MeBmt]^1 -Ciclosporin]
IC50, test 1.1 murine mixed lymphocyte reaction (thymidine incorporation) [1]: 0.015 µg/mL (≈ 0.0117 µM) | IC50, test 1.2 Mishell-Dutton test (number of plaque forming cells) [2]: 0.043 µg/mL
